Assay results from patent US20250282749A1 (Tango Therapeutics, Inc., priority 2022, published 2025).

Experiments:
Assay type in all cases: cell-based
[1] = tested on: PRMT5 (SDMA) in HAP1 MTAP-intact cell line; assay: SDMA in-cell western assay, HAP1 MTAP-intact cell line; conditions: Homo sapiens, HAP1 MTAP-intact cell line (endogenous MTAP), read-out: Hap 1 MTAP intact IC50
From the text: (§1) HAP1 MTAP-intact is a cell line in which endogenous levels of MTAP are expressed, and HAP1 MTAP-deleted is an MTAP-null cell line.

[2] = tested on: PRMT5 (SDMA) in HAP1 MTAP-deleted cell line; assay: SDMA in-cell western assay, HAP1 MTAP-deleted cell line; conditions: for IC50 / IC90: Homo sapiens, SDMA in-cell western, HAP1 MTAP-deleted (MTAP-null) cell line; for Hap1 MTAP intact/deleted ratio: ratio of SDMA in-cell western IC50 in HAP1 MTAP-intact to IC50 in HAP1 MTAP-deleted cell line
From the text: as §1

[3] = tested on: HAP1 MTAP-deleted cell line; assay: viability assay for the MTAP-deleted cell line; conditions: Homo sapiens

Row | Compound | IC50 [1] | IC50 [2] | IC90 [2] | Hap1 MTAP intact/deleted ratio [2] | IC50 [3]
1 | Cc1cc(NC(=O)C(=O)N2C[C@@H](C)N(C(=O)C(C)C)C[C@@H]2c2ccc3scnc3c2)cnc1N (single isomer, unassigned) [Compound 43] | > 50 nM | 5 to 50 nM | > 125 nM | C (an IC50 ratio of less than 15 fold) | 100 to 1000 nM
2 | Cc1cc(NC(=O)C(=O)N2C[C@@H](C)N(C(=O)C3(C)CCN(C)C3)C[C@@H]2c2ccccc2)cnc1N (some centres unmarked) [Compound 34] | > 50 nM | 5 to 50 nM | > 125 nM | B (an IC50 ratio greater than or equal to 15 fold but lower than 30 fold) | 100 to 1000 nM
3 | CCc1cc(NC(=O)C(=O)N2C[C@@H](C)N(C(=O)C3(C(F)(F)F)CC3)C[C@@H]2c2ccc(F)cc2)cnc1N [Compound 116, N-(6-amino-5-ethylpyridin-3-yl)-2-((2S,5R)-2-(4-fluorophenyl)-5-methyl-4-(1-(trifluoromethyl)cyclopropanecarbonyl)piperazin-1-yl)-2-oxoacetamide] | > 50 nM | < 5 nM | < 75 nM | A (an IC50 ratio greater than or equal to 30 fold) | < 100 nM
4 | CCc1cc(NC(=O)C(=O)N2C[C@@H](C)N(CC(C)(C)C)C[C@@H]2c2ccccc2)cnc1N [Compound 121, N-(6-amino-5-ethylpyridin-3-yl)-2-((2S,5R)-5-methyl-4neopentyl-2-phenylpiperazin-1-yl)-2-oxoacetamide] | > 50 nM | 5 to 50 nM | 75 to 125 nM | B (an IC50 ratio greater than or equal to 15 fold but lower than 30 fold) | < 100 nM
5 | CCc1cc(NC(=O)C(=O)N2C[C@@H](C)N(C(=O)C(C)(C)C)C[C@@H]2c2cccc(N3CCN(C)CC3)c2)cnc1N [Compound 110, N-(6-amino-5-ethylpyridin-3-yl)-2-((2S,5R)-5-methyl-2-(3-(4-methylpiperazin-1-yl)phenyl)-4-pivaloylpiperazin-1-yl)-2-oxoacetamide] | < 5 nM | < 5 nM | < 75 nM | C (an IC50 ratio of less than 15 fold) | < 100 nM
6 | COc1ncc(NC(=O)C(=O)N2C[C@H](C)N(C(=O)C(C)C)C[C@H]2c2ccc(F)cc2)cc1C(N)=O [Compound 88, 5-[[2-[(2R,5S)-2-(4-fluorophenyl)-5-methyl-4-(2-methylpropanoyl)piperazin-1-yl]-2-oxo-acetyl]amino]-2-methoxy-pyridine-3-carboxamide] | > 50 nM | > 50 nM | > 125 nM | C (an IC50 ratio of less than 15 fold) | > 1000 nM
7 | COc1ncc(NC(=O)C(=O)N2C[C@@H](C)N(C(=O)C(C)C)C[C@@H]2c2ccc(F)c(Cl)c2)cc1C(N)=O [Compound 12, 5-(2-((2S,5R)-2-(3-chloro-4-fluorophenyl)-4-isobutyryl-5-methylpiperazin-1-yl)-2-oxoacetamido)-2-methoxynicotinamide] | > 50 nM | 5 to 50 nM | > 125 nM | A (an IC50 ratio greater than or equal to 30 fold) | 100 to 1000 nM
8 | CC(C)CN1C[C@H](c2ccccc2)N(C(=O)C(=O)Nc2cnc(N)c(C3CC3)c2)C[C@H]1C [Compound 122, N-(6-amino-5-cyclopropylpyridin-3-yl)-2-((2S,5R)-4-isobutyl-5-methyl-2-phenylpiperazin-1-yl)-2-oxoacetamide] | > 50 nM | 5 to 50 nM | > 125 nM | B (an IC50 ratio greater than or equal to 15 fold but lower than 30 fold) | < 100 nM
9 | Cc1cc(NC(=O)C(=O)N2CCN(C(=O)C3(C(F)(F)F)CC3)[C@H](C)[C@H]2c2ccc(F)c(F)c2)cnc1N [Compound 66] | > 50 nM | 5 to 50 nM | > 125 nM | A (an IC50 ratio greater than or equal to 30 fold) | 100 to 1000 nM
10 | C[C@@H]1CN(C(=O)C(=O)Nc2cnc(N)c3cn[nH]c23)[C@@H](c2ccc(F)cc2)CN1C(=O)C1(C(F)(F)F)CC1 [Compound 79] | 5 to 50 nM | < 5 nM | < 75 nM | C (an IC50 ratio of less than 15 fold) | < 100 nM
11 | COc1ncc(NC(=O)C(=O)N2C[C@@H](C)N(C(=O)C(C)(C)CN(C)C)C[C@@H]2c2ccccc2)cc1C(N)=O [Compound 69] | > 50 nM | 5 to 50 nM | > 125 nM | A (an IC50 ratio greater than or equal to 30 fold) | 100 to 1000 nM
12 | CCc1cc(NC(=O)C(=O)N2C[C@@H](C)N(C(=O)C(C)(C)C)C[C@@H]2c2ccccc2)cnc1N [Compound 140, N-(6-amino-5-ethylpyridin-3-yl)-2-((2S,5R)-5-methyl-2-phenyl-4-pivaloylpiperazin-1-yl)-2-oxoacetamide] | 5 to 50 nM | < 5 nM | < 75 nM | C (an IC50 ratio of less than 15 fold) | < 100 nM
13 | C[C@@H]1CN(C(=O)C(=O)Nc2cnc(N)c(C3COC3)c2)[C@@H](c2ccccc2)CN1C(=O)C(C)(C)C [Compound 127, N-(6-amino-5-(oxetan-3-yl)pyridin-3-yl)-2-((2S,5R)-5-methyl-2-phenyl-4-pivaloylpiperazin-1-yl)-2-oxoacetamide] | 5 to 50 nM | 5 to 50 nM | < 75 nM | C (an IC50 ratio of less than 15 fold) | < 100 nM
14 | Cc1cc(NC(=O)C(=O)N2C[C@@H](C)N(C(=O)C(C)(C)C)C[C@@H]2c2cccc(N3CCN(C)CC3)c2)cnc1N [Compound 7, N-(6-amino-5-methylpyridin-3-yl)-2-((2S,5R)-5-methyl-2-(3-(4-methylpiperazin-1-yl)phenyl)-4-pivaloylpiperazin-1-yl)-2-oxoacetamide] | < 5 nM | < 5 nM | < 75 nM | C (an IC50 ratio of less than 15 fold) | < 100 nM
15 | CCC(=O)N1C[C@H](c2ccc(F)cc2)N(C(=O)C(=O)Nc2cnc(N)c(C3CC3)c2)C[C@H]1C [Compound 153] | > 50 nM | 5 to 50 nM | > 125 nM | B (an IC50 ratio greater than or equal to 15 fold but lower than 30 fold) | 100 to 1000 nM
16 | C[C@@H]1CN(C(=O)C(=O)Nc2cnc(N)c(C3CC3)c2)[C@@H](c2ccc(F)c(Cl)c2)CN1C(=O)C1(C(F)(F)F)CC1 [Compound 14, N-(6-amino-5-cyclopropylpyridin-3-yl)-2-((2S,5R)-2-(3-chloro-4-fluorophenyl)-5-methyl-4-(1-(trifluoromethyl)cyclopropanecarbonyl)piperazin-1-yl)-2-oxoacetamide] | > 50 nM | < 5 nM | < 75 nM | C (an IC50 ratio of less than 15 fold) | < 100 nM
17 | CCc1cc(NC(=O)C(=O)N2CCN(C(=O)C3(C(F)(F)F)CC3)[C@@H](C)[C@@H]2c2ccc(F)cc2)cnc1N [Compound 1] | > 50 nM | 5 to 50 nM | 75 to 125 nM | A (an IC50 ratio greater than or equal to 30 fold) | < 100 nM
18 | Cc1cc(NC(=O)C(=O)N2CCN(C(=O)C3(C(F)(F)F)CC3)[C@H](C)[C@H]2c2ccc(F)cc2)cnc1N (stereo in doubt) [Compound 118, N-(6-amino-5-methyl-3-pyridyl)-2-[2-(4-fluorophenyl)-3-methyl-4-[1-(trifluoromethyl)cyclopropanecarbonyl]piperazin-1-yl]-2-oxo-acetamide] | > 50 nM | 5 to 50 nM | > 125 nM | B (an IC50 ratio greater than or equal to 15 fold but lower than 30 fold) | 100 to 1000 nM
19 | CCc1cc(NC(=O)C(=O)N2C[C@@H](C)N(C(=O)C(C)(C)C)C[C@@H]2c2ccc(N3CCN(C)CC3)cc2)cnc1N [Compound 130, N-(6-amino-5-ethylpyridin-3-yl)-2-((2S,5R)-5-methyl-2-(4-(4-methylpiperazin-1-yl)phenyl)-4-pivaloylpiperazin-1-yl)-2-oxoacetamide] | 5 to 50 nM | < 5 nM | < 75 nM | C (an IC50 ratio of less than 15 fold) | < 100 nM
20 | Cc1cc(NC(=O)C(=O)N2C[C@H](C)N(C(=O)C(C)C)C[C@H]2c2ccc3scnc3c2)cnc1N (single isomer, unassigned) [Compound 45] | > 50 nM | > 50 nM | > 125 nM | C (an IC50 ratio of less than 15 fold) | > 1000 nM
21 | CCc1cc(NC(=O)C(=O)N2C[C@@H](C)N(C(=O)OC(C)(C)C)C[C@@H]2c2ccc(F)cc2)cnc1N [Compound 145, (2R,5S)-tert-butyl 4-(2-((6-amino-5-ethylpyridin-3-yl)amino)-2-oxoacetyl)-5-(4-fluorophenyl)-2-methylpiperazine-1-carboxylate] | > 50 nM | 5 to 50 nM | < 75 nM | B (an IC50 ratio greater than or equal to 15 fold but lower than 30 fold) | < 100 nM
22 | CC(C)C(=O)N1C[C@H](c2ccc(N3CCN(C)CC3)cc2)N(C(=O)C(=O)Nc2cnc(N)c(C3CC3)c2)C[C@H]1C (racemic) [Compound 4, rac-N-(6-amino-5-cyclopropylpyridin-3-yl)-2-((2R,5S)-4-isobutyryl-5-methyl-2-(4-(4-methylpiperazin-1-yl)phenyl)piperazin-1-yl)-2-oxoacetamide] | > 50 nM | 5 to 50 nM | > 125 nM | C (an IC50 ratio of less than 15 fold) | 100 to 1000 nM
